The source of these data is patent US7968601B2, “Adamantyl acetamides as 11-β hydroxysteroid dehydrogenase inhibitors” (Janssen Pharmaceutica N.V., priority 2002, dated 2011).

In series [1] the target is T1, 11b-HSD2 (Homo sapiens, UniProt P80365).
T1 sequence (P80365 1-405): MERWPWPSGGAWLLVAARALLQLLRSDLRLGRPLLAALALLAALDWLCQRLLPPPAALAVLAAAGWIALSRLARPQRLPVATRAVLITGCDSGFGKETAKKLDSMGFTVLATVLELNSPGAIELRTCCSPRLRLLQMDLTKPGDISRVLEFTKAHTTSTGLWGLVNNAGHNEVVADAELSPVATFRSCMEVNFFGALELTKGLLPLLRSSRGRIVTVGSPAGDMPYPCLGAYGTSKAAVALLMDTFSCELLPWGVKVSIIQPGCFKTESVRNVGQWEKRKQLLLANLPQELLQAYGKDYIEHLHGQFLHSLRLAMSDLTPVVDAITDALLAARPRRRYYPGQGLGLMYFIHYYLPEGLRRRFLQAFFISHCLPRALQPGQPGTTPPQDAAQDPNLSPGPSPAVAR
Briefly: Enzymatic assay, 11b-HSD2 dependent dehydrogenase activity. Type of series: biochemical. As to conditions: 11b-HSD2 dehydrogenase activity, pIC50 scored 1-3, read-out: [C1] HSD2 prot Dehydro Score. The essentials:
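Recombinant human 11b-HSD2 (2.5 μg) incubated 45 min at 37 C in 0.1M sodium phosphate pH 7.5 with 300 μM NAD and 100 nM cortisol (2 nM 3H-labelled). Product measured by HPLC; compounds at final […] to 3.10^−9M, pIC50 from dose-response curves, scored 1 (<5), 2 (5–6), 3 (>6).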

The target in series [2] is T1, 11b-HSD2. Briefly: Cellular assay, 11b-HSD2 activity in HepG2 cells. In kind it is cell-based. Also noted: endogenous in cells; host or cells: HepG2 (ATCC HB-8065). As to conditions: 4 hour pre-incubation, pIC50 scored 1-3, read-out: [C2] HSD2 cellular HepG2 Score. The essentials:
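HepG2 cells in charcoal-stripped FCS were pre-incubated 4 h with compound, then given 0.5 μCi ³H-cortisol or corticosterone for 1 h. Medium was ether-extracted and steroids resolved by HPLC. Final compound range was 10^−5 M to 3·10^−9 M, and pIC50 from dose-response curves was scored in three bands.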

The target in series [3] is 11b-HSD1 (Homo sapiens, UniProt P28845). As to the kind of experiment: Enzymatic assay, 11b-HSD1 reductase activity (conversion of cortisone into cortisol). In kind it is biochemical. As to conditions: pIC50 scored 1-3, read-out: [C1] HSD1-prot Reduct Score. The essentials:
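Recombinant human 11b-HSD1 (11 µg) with 2 µM cortisone and 180 µM NADPH in 30 mM Tris-HCl pH 7.2, 1 mM EDTA, incubated 45 min at 37 °C. Cortisol formation was measured by HPLC with a corticosterone internal standard. Compounds were tested from 10^−5 M to 3.10^−9 M, and pIC50 was scored as 1 (<5), 2 (5–6) or 3 (>6).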

Series [4] deals with T2, 11b-HSD1 (Mus musculus, UniProt P50172).
T2 construct: endogenous in cells; host or cells: 3T3-L1 (ATCC-CL-173), differentiated into adipocytes
Briefly: Cellular assay, 11b-HSD1 activity in differentiated 3T3-L1 cells. To be noted: 4 hour pre-incubation, pIC50 scored 1-3, read-out: [C2] HSD1 cellular 3T3-L1 Score. In kind it is cell-based. A digest of the protocol:
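Mouse 3T3-L1 fibroblasts differentiated to adipocytes (insulin, IBMX, dexamethasone), pre-incubated 4 h with compound (3×10^-9 to 10^-5 M final), then 0.5 μCi ³H-cortisone or dehydrocorticosterone added for 1 h. Medium ether-extracted, steroid conversion analysed by HPLC; pIC50 from dose-response curves, scored 1 (<5), 2 (5–6), 3 (>6).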

Where a name gives a salt, the structure may show the parent alone. A value given as a limit tells only on which side of the number the result lay.

T2 sequence (P50172 whole entry): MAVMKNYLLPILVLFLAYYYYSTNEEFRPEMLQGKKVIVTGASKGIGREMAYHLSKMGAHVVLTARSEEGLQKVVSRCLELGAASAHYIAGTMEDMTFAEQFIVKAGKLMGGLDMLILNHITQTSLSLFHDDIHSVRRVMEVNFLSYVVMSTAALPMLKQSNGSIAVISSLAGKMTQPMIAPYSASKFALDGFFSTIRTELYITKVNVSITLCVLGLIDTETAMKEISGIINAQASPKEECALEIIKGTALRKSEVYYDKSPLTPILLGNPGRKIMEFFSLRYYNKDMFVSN
11b-HSD1 (Homo sapiens, UniProt P28845), sequence (P28845 whole entry): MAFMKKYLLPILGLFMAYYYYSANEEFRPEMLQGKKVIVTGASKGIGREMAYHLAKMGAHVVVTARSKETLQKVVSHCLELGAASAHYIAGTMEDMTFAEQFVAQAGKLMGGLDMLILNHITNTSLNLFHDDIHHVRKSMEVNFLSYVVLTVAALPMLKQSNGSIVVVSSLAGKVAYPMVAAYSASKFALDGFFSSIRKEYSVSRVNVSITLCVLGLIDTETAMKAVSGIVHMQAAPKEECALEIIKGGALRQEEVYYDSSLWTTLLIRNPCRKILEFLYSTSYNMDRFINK

Compound `Cc1cccc(C(C)(C)C(=O)N[C@H]2[C@@H]3CC4C[C@H]2C[C@](F)(C4)C3)c1` [Compound 187] gave a melting point of 115 to 117 °C.
Still for that read-out and setting: under `O=C(N[C@H]1[C@@H]2CC3C[C@H]1C[C@](O)(C3)C2)N1CCCc2ccccc21` [Compound 218] stands 170 to 172 °C; under `O=C(NC1C2CC3CC(C2)CC1C3)N1CCCc2ccccc21` (stereo not shown) [Compound 200], 163 to 165 °C; under `CC(C)(C(=O)N[C@H]1[C@@H]2CC3C[C@H]1C[C@](F)(C3)C2)c1cccc(OCCN2CCOCC2)c1` (as salt: HCl) [Compound 228], 208 to 210 °C.
`COc1cccc(C(C)(C)C(=O)N[C@H]2[C@@H]3CC4C[C@H]2C[C@](F)(C4)C3)c1` [Compound 189] showed a melting point of 105 to 107 °C.
On the same count and under the same terms, next, `COc1cccc(C(C)(C)C(=O)N[C@@H]2[C@@H]3CC4C[C@H]2C[C@](O)(C4)C3)c1` [Compound 155]: 165 to 167 °C; `COc1cccc(C(C)(C)C(=O)N[C@@H]2[C@@H]3CC4C[C@H]2C[C@](F)(C4)C3)c1` [Compound 188]: 110 to 112 °C.
On the same count and under the same terms, next, `O=C(NC1C2CC3CC(C2)CC1C3)N1CCc2ccccc2C1` (stereo not shown) [Compound 201]: 145 to 147 °C; `O=C(N[C@H]1[C@@H]2CC3C[C@H]1C[C@](F)(C3)C2)N1CCCc2ccccc21` [Compound 226]: 182 to 184 °C; `CN1CCN(CCOc2cccc(C(C)(C)C(=O)NC3C4CC5CC(C4)CC3C5)c2)CC1` (stereo not shown) [Compound 199]: 165 to 170 °C.
Still for that read-out and setting: next, `CC(C)(C(=O)N[C@H]1[C@@H]2CC3C[C@H]1C[C@](O)(C3)C2)c1cccc(OCCN2CCOCC2)c1` (as salt: HCl) [Compound 158]: 155 to 160 °C; `O=C(O)COc1cccc2c1CCN(C(=O)NC1C3CC4CC(C3)CC1C4)C2` (stereo not shown) [Compound 257]: 215 to 220 °C; `CC(C)(C(=O)N[C@H]1[C@@H]2CC3C[C@H]1C[C@](F)(C3)C2)c1cccc(OCC(=O)O)c1` [Compound 227]: 210 to 215 °C.
Take `O=C(N[C@@H]1[C@@H]2CC3C[C@H]1C[C@](O)(C3)C2)N1CCCc2ccccc21` [Compound 219]: the melting point lay within 185 to 188 °C.
Turning to `O=C(NC1C2CC3CC(C2)CC1C3)C1Cc2ccccc21` (stereo not shown) [Compound 177], the IC50 is over 10 µM on 11b-HSD2 [1], over 10 µM on 11b-HSD2 [2], under 1 µM at 11b-HSD1 [3] and under 1 µM at 11b-HSD1 [4].
With `O=C(NC1C2CC3CC(C2)CC1C3)C1=CCCCc2ccccc21` (stereo not shown) [Compound 168], the IC50 on 11b-HSD2 [1] is over 10 µM; at 11b-HSD2 [2] it was over 10 µM; on 11b-HSD1 [3], under 1 µM; on 11b-HSD1 [4] it was under 1 µM.
As for `CC(C)(C(=O)NC1C2CC3CC(C2)CC1C3)c1cccc2ccccc12` (stereo not shown) [Compound 137], the IC50 was over 10 µM on 11b-HSD2 [1], over 10 µM on 11b-HSD2 [2], under 1 µM at 11b-HSD1 [3] and under 1 µM at 11b-HSD1 [4].
As for `CC1=C(C(=O)NC2C3CC4CC(C3)CC2C4)Cc2ccccc21` (stereo not shown) [Compound 141], the IC50 at 11b-HSD2 [1] is over 10 µM; at 11b-HSD2 [2] it was over 10 µM; on 11b-HSD1 [3] it was under 1 µM; on 11b-HSD1 [4], under 1 µM.
As to `CC(C)(C(=O)NC1C2CC3CC(C2)CC1C3)c1cccc(CCC(=O)O)c1` (stereo not shown) [Compound 196], the IC50 was over 10 µM at 11b-HSD2 [1], over 10 µM on 11b-HSD2 [2], under 1 µM on 11b-HSD1 [3] and under 1 µM at 11b-HSD1 [4].

One may read the melting point as the temperature, or range, at which the solid turns liquid.
